Measurements from ChEMBL document CHEMBL3393032, “Synthesis of oolongtheanins and their inhibitory activity on micellar cholesterol solubility in vitro” (Bioorg Med Chem Lett, 2015).

Test: Inhibition of micellar solubility of cholesterol assessed as cholesterol solubility at 10 g/L using [4-14C]cholesterol incubated at 37 degC for 1 hr by liquid scintillation counting method
Format: physicochemical
Parameters: scale not given: the % may be the effect or the level left

Row | Structure (SMILES) | Activity [%]
1 | O=C(O[C@@H]1Cc2c(O)cc(O)cc2O[C@@H]1c1cc(O)c(O)c2c1[C@H]1C(=O)C(O)=C[C@@]1([C@H]1Oc3cc(O)cc(O)c3C[C@H]1OC(=O)c1cc(O)c(O)c(O)c1)O2)c1cc(O)c(O)c(O)c1 | 1.4
2 | O=C1C(O)=C[C@@]2([C@H]3Oc4cc(O)cc(O)c4C[C@H]3O)Oc3c(O)c(O)cc([C@H]4Oc5cc(O)cc(O)c5C[C@H]4O)c3[C@@H]12 | 26.39
